Reference: the supplement of paper PMC10307832

What was measured:
Experiment in all cases: relative viability (nuclei count vs DMSO), 5 days (fraction); higher = more cells survive
Idelalisib + Pictilisib = compound: CC[C@H](Nc1ncnc2[nH]cnc12)c1nc2cccc(F)c2c(=O)n1-c1ccccc1 [Idelalisib] + CS(=O)(=O)N1CCN(Cc2cc3nc(-c4cccc5[nH]ncc45)nc(N4CCOCC4)c3s2)CC1 [Pictilisib] (partner 1 µM)
Summary of the method: (§1)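 One day after seeding in 1536-well plates, lung cancer cell lines were dosed by pin tool. Dosing was either single-drug or a fixed anchor-drug dose plus five library-drug doses (not always all listed) in √10 steps. After 5 days, nuclei were stained in one fix-and-stain step and counted on 4× images, and relative viability is the nuclei count of treated wells over that of vehicle wells, given as the median of duplicate plates.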

Idelalisib + Crizotinib = compound: CC[C@H](Nc1ncnc2[nH]cnc12)c1nc2cccc(F)c2c(=O)n1-c1ccccc1 [Idelalisib] + C[C@@H](Oc1cc(-c2cnn(C3CCNCC3)c2)cnc1N)c1c(Cl)ccc(F)c1Cl [Crizotinib] (partner 1 µM)
Summary of the method: as §1

Pemetrexed + Pictilisib = compound: Nc1nc2[nH]cc(CCc3ccc(C(=O)N[C@@H](CCC(=O)O)C(=O)O)cc3)c2c(=O)[nH]1 [Pemetrexed] + CS(=O)(=O)N1CCN(Cc2cc3nc(-c4cccc5[nH]ncc45)nc(N4CCOCC4)c3s2)CC1 [Pictilisib] (partner 1 µM)
Summary of the method: as §1

Pemetrexed + AZD7762 = compound: Nc1nc2[nH]cc(CCc3ccc(C(=O)N[C@@H](CCC(=O)O)C(=O)O)cc3)c2c(=O)[nH]1 [Pemetrexed] + NC(=O)Nc1cc(-c2cccc(F)c2)sc1C(=O)N[C@H]1CCCNC1 [AZD7762] (partner 0.2 µM)
Summary of the method: as §1

## A549
Idelalisib + Pictilisib; first compound 0.04 µM
  relative viability: 0.412
Idelalisib + Pictilisib; first compound 0.1265 µM
  relative viability: 0.516
Idelalisib + Pictilisib; first compound 0.4 µM
  relative viability: 0.409
Idelalisib + Pictilisib; first compound 1.265 µM
  relative viability: 0.468
Idelalisib + Pictilisib; first compound 4 µM
  relative viability: 0.371
Idelalisib + Crizotinib; first compound 0.04 µM
  relative viability: 0.902
Idelalisib + Crizotinib; first compound 0.1265 µM
  relative viability: 0.899
Idelalisib + Crizotinib; first compound 0.4 µM
  relative viability: 0.669
Idelalisib + Crizotinib; first compound 1.265 µM
  relative viability: 0.751
Idelalisib + Crizotinib; first compound 4 µM
  relative viability: 0.539
Pemetrexed + Pictilisib; first compound 0.002 µM
  relative viability: 0.42
Pemetrexed + Pictilisib; first compound 0.006325 µM
  relative viability: 0.519
Pemetrexed + Pictilisib; first compound 0.02 µM
  relative viability: 0.602
Pemetrexed + Pictilisib; first compound 0.06325 µM
  relative viability: 0.483
Pemetrexed + Pictilisib; first compound 0.2 µM
  relative viability: 0.489

## NCI-H2023
Idelalisib + Pictilisib; first compound 0.04 µM
  relative viability: 0.221
Idelalisib + Pictilisib; first compound 0.1265 µM
  relative viability: 0.279
Idelalisib + Pictilisib; first compound 0.4 µM
  relative viability: 0.153
Idelalisib + Pictilisib; first compound 1.265 µM
  relative viability: 0.241
Idelalisib + Pictilisib; first compound 4 µM
  relative viability: 0.266
Idelalisib + Crizotinib; first compound 0.04 µM
  relative viability: 0.63
Idelalisib + Crizotinib; first compound 0.1265 µM
  relative viability: 0.662
Idelalisib + Crizotinib; first compound 0.4 µM
  relative viability: 0.487
Idelalisib + Crizotinib; first compound 1.265 µM
  relative viability: 0.579
Idelalisib + Crizotinib; first compound 4 µM
  relative viability: 0.54
Pemetrexed + Pictilisib; first compound 0.002 µM
  relative viability: 0.136
Pemetrexed + Pictilisib; first compound 0.006325 µM
  relative viability: 0.231
Pemetrexed + Pictilisib; first compound 0.02 µM
  relative viability: 0.237
Pemetrexed + Pictilisib; first compound 0.06325 µM
  relative viability: 0.218
Pemetrexed + Pictilisib; first compound 0.2 µM
  relative viability: 0.117

## NCI-H2342
Pemetrexed + AZD7762; first compound 0.002 µM
  relative viability: 0.354
Pemetrexed + AZD7762; first compound 0.006325 µM
  relative viability: 0.492
Pemetrexed + AZD7762; first compound 0.02 µM
  relative viability: 0.392
Pemetrexed + AZD7762; first compound 0.06325 µM
  relative viability: 0.524
Pemetrexed + AZD7762; first compound 0.2 µM
  relative viability: 0.443

## SK-MES-1
Idelalisib + Pictilisib; first compound 0.04 µM
  relative viability: 0.377
Idelalisib + Pictilisib; first compound 0.1265 µM
  relative viability: 0.365
Idelalisib + Pictilisib; first compound 0.4 µM
  relative viability: 0.355
Idelalisib + Pictilisib; first compound 1.265 µM
  relative viability: 0.414
Idelalisib + Pictilisib; first compound 4 µM
  relative viability: 0.36
Idelalisib + Crizotinib; first compound 0.04 µM
  relative viability: 1.06
Idelalisib + Crizotinib; first compound 0.1265 µM
  relative viability: 0.959
Idelalisib + Crizotinib; first compound 0.4 µM
  relative viability: 0.888
Idelalisib + Crizotinib; first compound 1.265 µM
  relative viability: 0.876
Idelalisib + Crizotinib; first compound 4 µM
  relative viability: 0.789
Pemetrexed + Pictilisib; first compound 0.002 µM
  relative viability: 0.34
Pemetrexed + Pictilisib; first compound 0.006325 µM
  relative viability: 0.327
Pemetrexed + Pictilisib; first compound 0.02 µM
  relative viability: 0.349
Pemetrexed + Pictilisib; first compound 0.06325 µM
  relative viability: 0.322
Pemetrexed + Pictilisib; first compound 0.2 µM
  relative viability: 0.401

## NCI-H1648
Pemetrexed + AZD7762; first compound 0.002 µM
  relative viability: 0.671
Pemetrexed + AZD7762; first compound 0.006325 µM
  relative viability: 0.703
Pemetrexed + AZD7762; first compound 0.02 µM
  relative viability: 0.831
Pemetrexed + AZD7762; first compound 0.06325 µM
  relative viability: 0.686
Pemetrexed + AZD7762; first compound 0.2 µM
  relative viability: 0.623

## NCI-H2009
Idelalisib + Pictilisib; first compound 0.04 µM
  relative viability: 0.85
Idelalisib + Pictilisib; first compound 0.1265 µM
  relative viability: 0.767
Idelalisib + Pictilisib; first compound 0.4 µM
  relative viability: 0.798
Idelalisib + Pictilisib; first compound 1.265 µM
  relative viability: 0.84
Idelalisib + Pictilisib; first compound 4 µM
  relative viability: 0.768
Idelalisib + Crizotinib; first compound 0.04 µM
  relative viability: 1.02
Idelalisib + Crizotinib; first compound 0.1265 µM
  relative viability: 1.04
Idelalisib + Crizotinib; first compound 0.4 µM
  relative viability: 1.03
Idelalisib + Crizotinib; first compound 1.265 µM
  relative viability: 0.991
Idelalisib + Crizotinib; first compound 4 µM
  relative viability: 1.01
Pemetrexed + Pictilisib; first compound 0.002 µM
  relative viability: 0.785
Pemetrexed + Pictilisib; first compound 0.006325 µM
  relative viability: 0.763
Pemetrexed + Pictilisib; first compound 0.02 µM
  relative viability: 0.824
Pemetrexed + Pictilisib; first compound 0.06325 µM
  relative viability: 0.744
Pemetrexed + Pictilisib; first compound 0.2 µM
  relative viability: 0.723

## NCI-H661
Idelalisib + Pictilisib; first compound 0.04 µM
  relative viability: 0.426
Idelalisib + Pictilisib; first compound 0.1265 µM
  relative viability: 0.37
Idelalisib + Pictilisib; first compound 0.4 µM
  relative viability: 0.446
Idelalisib + Pictilisib; first compound 1.265 µM
  relative viability: 0.468
Idelalisib + Pictilisib; first compound 4 µM
  relative viability: 0.456
Idelalisib + Crizotinib; first compound 0.04 µM
  relative viability: 1.04
Idelalisib + Crizotinib; first compound 0.4 µM
  relative viability: 1.08
Idelalisib + Crizotinib; first compound 1.265 µM
  relative viability: 1.14
Idelalisib + Crizotinib; first compound 4 µM
  relative viability: 0.943
Pemetrexed + Pictilisib; first compound 0.002 µM
  relative viability: 0.487
Pemetrexed + Pictilisib; first compound 0.006325 µM
  relative viability: 0.402
Pemetrexed + Pictilisib; first compound 0.02 µM
  relative viability: 0.438
Pemetrexed + Pictilisib; first compound 0.2 µM
  relative viability: 0.424

## NCI-H520
Idelalisib + Pictilisib; first compound 0.04 µM
  relative viability: 0.394
Idelalisib + Pictilisib; first compound 0.1265 µM
  relative viability: 0.308
Idelalisib + Pictilisib; first compound 0.4 µM
  relative viability: 0.283
Idelalisib + Pictilisib; first compound 1.265 µM
  relative viability: 0.294
Idelalisib + Pictilisib; first compound 4 µM
  relative viability: 0.309
Idelalisib + Crizotinib; first compound 0.04 µM
  relative viability: 0.782
Idelalisib + Crizotinib; first compound 0.1265 µM
  relative viability: 0.727
Idelalisib + Crizotinib; first compound 0.4 µM
  relative viability: 0.717
Idelalisib + Crizotinib; first compound 1.265 µM
  relative viability: 0.737
Idelalisib + Crizotinib; first compound 4 µM
  relative viability: 0.623
Pemetrexed + Pictilisib; first compound 0.002 µM
  relative viability: 0.247
Pemetrexed + Pictilisib; first compound 0.006325 µM
  relative viability: 0.254
Pemetrexed + Pictilisib; first compound 0.02 µM
  relative viability: 0.349
Pemetrexed + Pictilisib; first compound 0.06325 µM
  relative viability: 0.322
Pemetrexed + Pictilisib; first compound 0.2 µM
  relative viability: 0.275

## NCI-H1563
Idelalisib + Pictilisib; first compound 0.04 µM
  relative viability: 0.656
Idelalisib + Pictilisib; first compound 0.1265 µM
  relative viability: 0.663
Idelalisib + Pictilisib; first compound 0.4 µM
  relative viability: 0.583
Idelalisib + Pictilisib; first compound 1.265 µM
  relative viability: 0.658
Idelalisib + Pictilisib; first compound 4 µM
  relative viability: 0.678
Idelalisib + Crizotinib; first compound 0.04 µM
  relative viability: 0.774
Idelalisib + Crizotinib; first compound 0.1265 µM
  relative viability: 0.87
Idelalisib + Crizotinib; first compound 0.4 µM
  relative viability: 0.793
Idelalisib + Crizotinib; first compound 1.265 µM
  relative viability: 0.828
Idelalisib + Crizotinib; first compound 4 µM
  relative viability: 0.728
Pemetrexed + Pictilisib; first compound 0.002 µM
  relative viability: 0.705
Pemetrexed + Pictilisib; first compound 0.006325 µM
  relative viability: 0.609
Pemetrexed + Pictilisib; first compound 0.02 µM
  relative viability: 0.665
Pemetrexed + Pictilisib; first compound 0.06325 µM
  relative viability: 0.634
Pemetrexed + Pictilisib; first compound 0.2 µM
  relative viability: 0.625

## NCI-H522
Pemetrexed + AZD7762; first compound 0.002 µM
  relative viability: 0.999
Pemetrexed + AZD7762; first compound 0.006325 µM
  relative viability: 0.806
Pemetrexed + AZD7762; first compound 0.02 µM
  relative viability: 1.05
Pemetrexed + AZD7762; first compound 0.06325 µM
  relative viability: 0.91
Pemetrexed + AZD7762; first compound 0.2 µM
  relative viability: 0.805

## NCI-H2228
Idelalisib + Pictilisib; first compound 0.04 µM
  relative viability: 0.383
Idelalisib + Pictilisib; first compound 0.1265 µM
  relative viability: 0.367
Idelalisib + Pictilisib; first compound 0.4 µM
  relative viability: 0.355
Idelalisib + Pictilisib; first compound 1.265 µM
  relative viability: 0.396
Idelalisib + Pictilisib; first compound 4 µM
  relative viability: 0.421
Idelalisib + Crizotinib; first compound 0.04 µM
  relative viability: 0.476
Idelalisib + Crizotinib; first compound 0.1265 µM
  relative viability: 0.389
Idelalisib + Crizotinib; first compound 0.4 µM
  relative viability: 0.354
Idelalisib + Crizotinib; first compound 1.265 µM
  relative viability: 0.413
Idelalisib + Crizotinib; first compound 4 µM
  relative viability: 0.355
Pemetrexed + Pictilisib; first compound 0.002 µM
  relative viability: 0.194
Pemetrexed + Pictilisib; first compound 0.006325 µM
  relative viability: 0.427
Pemetrexed + Pictilisib; first compound 0.02 µM
  relative viability: 0.379
Pemetrexed + Pictilisib; first compound 0.06325 µM
  relative viability: 0.35
Pemetrexed + Pictilisib; first compound 0.2 µM
  relative viability: 0.238

## NCI-H1299
Idelalisib + Pictilisib; first compound 0.04 µM
  relative viability: 0.764
Idelalisib + Pictilisib; first compound 0.1265 µM
  relative viability: 0.758
Idelalisib + Pictilisib; first compound 0.4 µM
  relative viability: 0.833
Idelalisib + Pictilisib; first compound 1.265 µM
  relative viability: 0.973
Idelalisib + Pictilisib; first compound 4 µM
  relative viability: 0.606
Idelalisib + Crizotinib; first compound 0.04 µM
  relative viability: 0.99
Idelalisib + Crizotinib; first compound 0.1265 µM
  relative viability: 0.969
Idelalisib + Crizotinib; first compound 0.4 µM
  relative viability: 0.919
Idelalisib + Crizotinib; first compound 1.265 µM
  relative viability: 1.08
Idelalisib + Crizotinib; first compound 4 µM
  relative viability: 1.01
Pemetrexed + Pictilisib; first compound 0.002 µM
  relative viability: 0.86
Pemetrexed + Pictilisib; first compound 0.006325 µM
  relative viability: 0.724
Pemetrexed + Pictilisib; first compound 0.02 µM
  relative viability: 1.06
Pemetrexed + Pictilisib; first compound 0.06325 µM
  relative viability: 0.762
Pemetrexed + Pictilisib; first compound 0.2 µM
  relative viability: 0.536

## Calu-6
Idelalisib + Pictilisib; first compound 0.04 µM
  relative viability: 1.05
Idelalisib + Pictilisib; first compound 0.1265 µM
  relative viability: 0.947
Idelalisib + Pictilisib; first compound 0.4 µM
  relative viability: 0.934
Idelalisib + Pictilisib; first compound 1.265 µM
  relative viability: 0.902
Idelalisib + Pictilisib; first compound 4 µM
  relative viability: 0.865
Idelalisib + Crizotinib; first compound 0.04 µM
  relative viability: 0.866
Idelalisib + Crizotinib; first compound 0.1265 µM
  relative viability: 0.822
Idelalisib + Crizotinib; first compound 0.4 µM
  relative viability: 0.759
Idelalisib + Crizotinib; first compound 1.265 µM
  relative viability: 0.832
Idelalisib + Crizotinib; first compound 4 µM
  relative viability: 0.774
Pemetrexed + Pictilisib; first compound 0.002 µM
  relative viability: 0.876
Pemetrexed + Pictilisib; first compound 0.006325 µM
  relative viability: 0.911
Pemetrexed + Pictilisib; first compound 0.02 µM
  relative viability: 0.978
Pemetrexed + Pictilisib; first compound 0.06325 µM
  relative viability: 0.903
Pemetrexed + Pictilisib; first compound 0.2 µM
  relative viability: 0.785
